Data taken from article PMC5570892, “Indole-based perenosins as highly potent HCl transporters and potential anti-cancer agents” (Scientific Reports, 2017).
Where “and” joins values, the source holds several entries; their conditions need not be identical. Equal values may be shown once. Entries after “also recorded” stand apart in the source; their conditions may differ.

Assay: Cl^−/NO3^− antiport assay by chloride ISE
Assay type: biochemical
Settings: for chloride transport at pH 7.2 (Hill analysis feasibility): Cl^−/NO3^− ISE assay, dose response; for chloride efflux at pH 4.5: citrate buffer, within 5 minutes; for chloride transport at pH 6.5: phosphate buffer, compared to pH 7.2; for EC50 Cl^−/NO3^− at pH 7.2 (by ISE): EC50 at 270 s, carrier:lipid molar percent, POPC vesicles
Method: The chloride transport properties of the new perenosins 2–8 were compared to 1d using the chloride/nitrate exchange assay monitored by a chloride ion selective electrode (ISE). Typically, unilamellar vesicles were prepared from POPC, containing an intravesicular NaCl solution (489 mM with 5 mM phosphate buffer at pH 7.2) suspended in a NaNO3 solution (489 mM with 5 mM phosphate buffer at pH 7.2). All perenosins were added as a DMSO solution and the rate of chloride efflux was monitored by the chloride ISE. At the end of the experiment (300 s), detergent was added to lyse the vesicles and obtain the 100% chloride efflux reading. Dose response studies of 1d and 2–8 were performed to allow Hill analysis, giving the EC50 values and Hill coefficients as shown in Table 2.
The external pH of cancer cells (pH 6.7[53]) is slightly acidic compared to healthy cells (pH 7.2–7.5[54]). […] To investigate the effect of pH on the chloride transport capabilities unilamellar vesicles were loaded with NaCl (489 mM) and suspended in NaNO3 (489 mM), and the internal and external solutions were buffered to pH 4.5, 6.5, 7.2 and 10 using various buffers (more detail can be found in the Supplementary Information). Compounds 1d and 2–8 were then tested in a single point screen at 0.1 mol% loading (Fig. 5). At pH 4.5 the perenosins exist predominantly as the active protonated species and so all compounds show moderate to high chloride transport properties, whereas, there is no chloride transport observed at pH 10 (see Supplementary Information for results).
S10. Anion Transport Studies
S10.1. General Procedure for the ISE Assay
Unilamellar vesicles were prepared using previously reported literature procedures7-9. A lipid film of POPC (1-palmitoyl-2-oleoyl-sn-glycero-3-phosphocholine) or POPC:cholesterol (7:3 molar ratio) was prepared from a chloroform solution under reduced pressure and then dried under vacuum for 4 or more hours. The lipid film was rehydrated by vortexing with an internal solution of buffered metal chloride salt (usually 489 mM MCl). The lipid suspension was then subjected to 9 freeze-thaw cycles and left to rest at room temperature for 30 minutes. After this, the suspension was extruded 25 times through a 200 nm polycarbonate membrane resulting in unilamellar vesicles of a mean diameter of 200 nm. The large unilamellar vesicles were dialysed in the corresponding external solution for a minimum of 2 hours to remove any unencapsulated metal salts. The lipid solution obtained after dialysis was diluted to a standard volume (usually 10 mL) with the external buffered solution to obtain a lipid stock of known concentration.
Internal and external solutions vary for each experiment and are detailed for each. Experiments conducted at different pHs required different buffers (citrate buffer for pH 4.5; phosphate buffer for pH 6.5 and pH 7.2; and ethanolamine buffer for pH 10) however, a constant buffer concentration (5 mM) and total ionic strength (500 mM) was maintained.
The lipid stock was diluted with the external buffer solution to a standard volume (5 mL), to afford a solution with a lipid concentration of 1 mM. The compounds were added as a DMSO solution (10 μL) at the start of the experiment and the resulting chloride efflux was monitored using a chloride selective electrode over 5 minutes. After this time, detergent (50 μL of Triton X-100 (11 w%) in H2O:DMSO (7:1 v/v)) was added to lyse the vesicles and after 7 minutes a final chloride efflux reading was taken. This value represented 100 % chloride efflux and was used to calibrate the other […]
Compared to pH 7.2, at pH 6.5 compounds 1d and 2-6 show increased transport ability with 2, 4 and 5 showing very similar, high transport capabilities and 1d, 3 and 6 not transporting to as great an […]
S10.3. Cl-/NO3- ISE Assay - Hill Analysis
The Cl-/NO3- exchange assay was performed as described above testing the compounds at varying […]
carrier concentration (mol%, with respect to lipid). The data points were then fitted to the Hill […]

Compound: CCCCCc1cc2cc(C(F)(F)F)cc(/N=C/c3[nH]c(C)cc3C)c2[nH]1 [Perenosin 3]
- chloride transport at pH 7.2 (Hill analysis feasibility): too weak to perform Hill analysis
- maximum chloride efflux (after 300 s, loading of 10 mol%, pH 7.2): 35%

Compound: CCCCCc1cc2cc(C)cc(/N=C/c3[nH]c4ccccc4c3C)c2[nH]1 [Perenosin 8]
- chloride efflux at pH 4.5 (0.1 mol% loading): 35%
- chloride transport at pH 6.5 (0.1 mol% loading): inactive
- chloride transport at pH 7.2 (Hill analysis feasibility): too weak to perform Hill analysis; also recorded: weak transport activity

Compound: CCCCCc1cc2cc(C)cc(/N=C/c3[nH]c(C)cc3C)c2[nH]1 [Perenosin 2]
- chloride efflux in POPC vesicles at pH 7.2 (0.1 mol% loading): 100%
- chloride transport at pH 6.5 (0.1 mol% loading): high
- EC50 Cl^−/NO3^− at pH 7.2 (by ISE): 0.0043 mol%

Compound: CCCc1cc2cc(C)cc(/N=C/c3[nH]c(C)cc3C)c2[nH]1 [Perenosin 4]
- chloride transport at pH 6.5 (0.1 mol% loading): high
- EC50 Cl^−/NO3^− at pH 7.2 (by ISE): 0.0111 mol%

Compound: CCCCCc1c(C)[nH]c(/C=N/c2cc(C)cc3cc[nH]c23)c1C [Perenosin 5]
- chloride transport at pH 6.5 (0.1 mol% loading): high
- EC50 Cl^−/NO3^− at pH 7.2 (by ISE): 0.0227 mol%

Compound: CCCCCc1cc(/N=C/c2[nH]c3ccccc3c2C)c2[nH]ccc2c1 [Perenosin 7]
- chloride efflux at pH 4.5 (0.1 mol% loading): inactive
- chloride transport at pH 6.5 (0.1 mol% loading): inactive
- chloride transport at pH 7.2 (Hill analysis feasibility): too weak to perform Hill analysis; also recorded: weak transport activity

Compound: CCCCCc1cc(/N=C/c2[nH]c(C)cc2C)c2[nH]ccc2c1 [Perenosin 1d]
- EC50 Cl^−/NO3^− at pH 7.2 (by ISE): 0.122 mol% and 0.1220 mol%

Compound: CCCCCc1cc2cc(C)cc(/N=C/c3[nH]c(C)c(CCCCC)c3C)c2[nH]1 [Perenosin 6]
- EC50 Cl^−/NO3^− at pH 7.2 (by ISE): 0.0852 mol%
